Values after ≈ are worked out from the molar mass of the structure shown.
Tests used:
Staphylococcus aureus [1] = assay: In vitro minimum inhibitory concentration against Staphylococcus aureus A5177 using standard agar dilution method; type: functional
Haemophilus influenzae = assay: In vitro minimum inhibitory concentration against Haemophilus influenzae DILL using standard agar dilution method; type: functional
Staphylococcus aureus [2] = assay: In vitro minimum inhibitory concentration against Staphylococcus aureus 6538P using standard agar dilution method
Streptococcus pyogenes [3] = assay: In vitro minimum inhibitory concentration against Streptococcus pyogenes PIU 2548 using standard agar dilution method; type: functional
Streptococcus pyogenes [4] = assay: In vitro minimum inhibitory concentration against Streptococcus pyogenes 930 using standard agar dilution method; type: functional
Streptococcus pyogenes [5] = assay: In vitro minimum inhibitory concentration against Streptococcus pyogenes EES61 using standard agar dilution method; type: functional
Streptococcus pneumoniae [6] = assay: In vitro minimum inhibitory concentration against Streptococcus pneumoniae 5737.; type: functional
Staphylococcus aureus [7] = assay: In vitro minimum inhibitory concentration against Staphylococcus aureus 6538P using standard agar dilution method; type: functional
Streptococcus pneumoniae [8] = assay: In vitro minimum inhibitory concentration against Streptococcus pneumoniae 5649.; type: functional
Streptococcus pneumoniae [9] = assay: In vitro minimum inhibitory concentration against Streptococcus pneumoniae ATCC 6303.; type: functional
Staphylococcus aureus [10] = assay: In vitro minimum inhibitory concentration against Staphylococcus aureus A5177.; type: functional

| Compound | MIC (Staphylococcus aureus [1]) | MIC (Haemophilus influenzae) | MIC (Staphylococcus aureus [2]) | MIC (Streptococcus pyogenes [3]) | MIC (Streptococcus pyogenes [4]) | MIC (Streptococcus pyogenes [5]) | MIC (Streptococcus pneumoniae [6]) | MIC (Staphylococcus aureus [7]) | MIC (Streptococcus pneumoniae [8]) | MIC (Streptococcus pneumoniae [9]) | MIC (Staphylococcus aureus [10]) |
| --- | --- | --- | --- | --- | --- | --- | --- | --- | --- | --- | --- |
| CCCO[C@@]1(C)C[C@@H](C)C(=O)[C@H](C)[C@@H](O)[C@](C)(O)[C@@H](CC)OC(=O)[C@H](C)[C@@H](O[C@H]2C[C@@](C)(OC)[C@@H](O)[C@H](C)O2)[C@H](C)[C@H]1O[C@@H]1O[C@H](C)C[C@H](N(C)C)[C@H]1O | 25 µg/mL (≈ 32.2 µM) | 32 µg/mL (≈ 41.2 µM) | 3.1 µg/mL (≈ 3.99 µM) | 64 µg/mL (≈ 82.5 µM) | > 128 µg/mL | 0.05 µg/mL (≈ 0.0644 µM) |  |  |  |  |  |
| CC[C@H]1OC(=O)C(C)[C@@H](O[C@H]2C[C@@](C)(OC)[C@@H](O)[C@H](C)O2)[C@H](C)[C@@H](O[C@@H]2O[C@H](C)C[C@H](N(C)C)[C@H]2O)[C@@](C)(OC/C=N/Oc2ccccc2)C[C@@H](C)C(=O)[C@H](C)[C@@H](O)[C@]1(C)O (single isomer, unassigned) |  | 4 µg/mL (≈ 4.61 µM) |  | 32 µg/mL (≈ 36.9 µM) | 128 µg/mL (≈ 148 µM) | 0.008 µg/mL (≈ 0.00923 µM) | 128 µg/mL (≈ 148 µM) | 0.2 µg/mL (≈ 0.231 µM) | 16 µg/mL (≈ 18.5 µM) | 0.008 µg/mL (≈ 0.00923 µM) | 3.1 µg/mL (≈ 3.58 µM) |
| CC[C@H]1OC(=O)[C@H](C)[C@@H](O[C@H]2C[C@@](C)(OC)[C@@H](O)[C@H](C)O2)[C@H](C)[C@@H](O[C@@H]2O[C@H](C)C[C@H](N(C)C)[C@H]2O)[C@](C)(OC)C[C@@H](C)C(=O)[C@H](C)[C@@H](O)[C@]1(C)O [CLARITHROMYCIN] |  | 8 µg/mL (≈ 10.7 µM) |  | 32 µg/mL (≈ 42.8 µM) | > 128 µg/mL | 0.03 µg/mL (≈ 0.0401 µM) | > 128 µg/mL | 0.2 µg/mL (≈ 0.267 µM) | 16 µg/mL (≈ 21.4 µM) | 0.06 µg/mL (≈ 0.0802 µM) | 6.2 µg/mL (≈ 8.29 µM) |
| CC[C@H]1OC(=O)[C@H](C)[C@@H](O[C@H]2C[C@@](C)(OC)[C@@H](O)[C@H](C)O2)[C@H](C)[C@@H](O[C@@H]2O[C@H](C)C[C@H](N(C)C)[C@H]2O)[C@](C)(O)C[C@@H](C)C(=O)[C@H](C)[C@@H](O)[C@]1(C)O [ERYTHROMYCIN] |  | 4 µg/mL (≈ 5.45 µM) |  | 32 µg/mL (≈ 43.6 µM) | > 128 µg/mL | 0.03 µg/mL (≈ 0.0409 µM) | > 128 µg/mL | 0.2 µg/mL (≈ 0.273 µM) | 16 µg/mL (≈ 21.8 µM) | 0.06 µg/mL (≈ 0.0818 µM) | 6.2 µg/mL (≈ 8.45 µM) |

— ChEMBL document CHEMBL1133079, “Synthesis and antibacterial activity of novel 6-O-substituted erythromycin A derivatives” (2000)
